Measured values published in ChEMBL document CHEMBL1201862, “PubChem BioAssay data set” (2004).
Calls of active or inactive are those of the source.

How the values were obtained:
[1] = tested on: HeLa; test: ATP-based viability loss in HeLa cells – cell-based, CellTiter-Glo luminescence, cherry-pick samples, cytotoxicity control for MITF activator project, dose response (AID 540259); type: functional; settings: Homo sapiens
[2] = molecular target: T1, Protein RecA (Mycobacterium tuberculosis, UniProt P9WHJ3); test: Fluorescence Cell-Free Homogeneous Dose Retest to Identify Inhibitors of RecA-Intein Splicing Activity. [Related pubchem assays (depositor defined):AID2097, AID2223, AID489010, AID492950]; type: functional
T1 sequence (P9WHJ3 whole entry): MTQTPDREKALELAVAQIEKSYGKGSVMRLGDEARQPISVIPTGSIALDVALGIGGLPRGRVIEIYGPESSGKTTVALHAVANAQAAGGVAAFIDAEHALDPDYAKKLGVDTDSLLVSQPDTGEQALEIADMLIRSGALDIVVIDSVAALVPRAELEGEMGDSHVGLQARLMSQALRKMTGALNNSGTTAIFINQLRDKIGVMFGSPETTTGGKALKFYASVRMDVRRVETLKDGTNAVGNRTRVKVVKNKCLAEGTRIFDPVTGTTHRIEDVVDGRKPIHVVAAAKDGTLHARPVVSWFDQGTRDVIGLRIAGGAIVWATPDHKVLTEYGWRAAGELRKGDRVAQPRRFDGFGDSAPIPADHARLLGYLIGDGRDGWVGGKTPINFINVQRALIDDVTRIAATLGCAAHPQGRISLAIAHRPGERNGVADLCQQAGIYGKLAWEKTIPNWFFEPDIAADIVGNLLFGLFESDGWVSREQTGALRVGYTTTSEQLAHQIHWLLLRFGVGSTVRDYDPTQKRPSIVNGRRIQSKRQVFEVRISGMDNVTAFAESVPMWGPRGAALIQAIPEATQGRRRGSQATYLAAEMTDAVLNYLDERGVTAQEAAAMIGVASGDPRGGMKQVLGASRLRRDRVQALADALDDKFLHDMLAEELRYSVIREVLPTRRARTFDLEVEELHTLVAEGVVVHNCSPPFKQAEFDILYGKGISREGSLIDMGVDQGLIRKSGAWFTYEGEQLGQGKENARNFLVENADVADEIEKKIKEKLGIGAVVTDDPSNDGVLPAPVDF

[3] = tested on: HT-1080; test: HT1080 cell viability loss – fluorescence readout (AID 620); type: functional, cell-based; settings: Homo sapiens
[4] = molecular target: T2, Hexokinase HKDC1 (Homo sapiens, UniProt Q2TB90); test: inhibition of HKDC1 glucose phosphorylation – biochemical, W721R variant, dose response (AID 504729); type: functional
T2 sequence (Q2TB90 whole entry): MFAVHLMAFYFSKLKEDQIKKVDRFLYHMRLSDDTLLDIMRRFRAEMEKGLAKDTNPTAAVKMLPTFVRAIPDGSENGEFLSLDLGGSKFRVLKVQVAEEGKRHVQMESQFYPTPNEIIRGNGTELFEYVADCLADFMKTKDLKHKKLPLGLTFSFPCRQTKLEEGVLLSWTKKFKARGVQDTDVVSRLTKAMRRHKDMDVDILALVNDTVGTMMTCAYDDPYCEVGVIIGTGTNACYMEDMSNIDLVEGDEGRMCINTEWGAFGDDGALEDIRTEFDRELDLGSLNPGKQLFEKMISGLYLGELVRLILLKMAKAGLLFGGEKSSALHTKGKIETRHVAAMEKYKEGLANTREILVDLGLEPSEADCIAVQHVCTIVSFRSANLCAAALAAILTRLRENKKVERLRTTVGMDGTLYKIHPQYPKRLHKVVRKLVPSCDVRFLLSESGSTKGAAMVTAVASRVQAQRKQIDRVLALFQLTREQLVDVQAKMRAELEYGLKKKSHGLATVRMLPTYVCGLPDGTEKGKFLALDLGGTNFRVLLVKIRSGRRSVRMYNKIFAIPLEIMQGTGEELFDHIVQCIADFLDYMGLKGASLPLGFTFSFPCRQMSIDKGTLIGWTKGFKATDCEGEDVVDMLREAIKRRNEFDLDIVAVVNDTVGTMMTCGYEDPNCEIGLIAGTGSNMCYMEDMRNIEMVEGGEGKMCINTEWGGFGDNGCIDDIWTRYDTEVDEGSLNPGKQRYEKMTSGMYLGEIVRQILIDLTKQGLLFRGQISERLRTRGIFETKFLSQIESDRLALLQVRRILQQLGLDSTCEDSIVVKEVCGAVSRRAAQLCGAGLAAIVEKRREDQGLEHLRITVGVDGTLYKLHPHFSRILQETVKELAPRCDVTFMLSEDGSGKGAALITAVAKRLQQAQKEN

[5] = molecular target: C-C chemokine receptor type 6 (Homo sapiens, UniProt P51684); test: antagonism of CCR6 beta-arrestin recruitment – cell-based, luminescent beta-arrestin readout, dose response (AID 504728); type: functional
Sequence of C-C chemokine receptor type 6 (P51684 whole entry): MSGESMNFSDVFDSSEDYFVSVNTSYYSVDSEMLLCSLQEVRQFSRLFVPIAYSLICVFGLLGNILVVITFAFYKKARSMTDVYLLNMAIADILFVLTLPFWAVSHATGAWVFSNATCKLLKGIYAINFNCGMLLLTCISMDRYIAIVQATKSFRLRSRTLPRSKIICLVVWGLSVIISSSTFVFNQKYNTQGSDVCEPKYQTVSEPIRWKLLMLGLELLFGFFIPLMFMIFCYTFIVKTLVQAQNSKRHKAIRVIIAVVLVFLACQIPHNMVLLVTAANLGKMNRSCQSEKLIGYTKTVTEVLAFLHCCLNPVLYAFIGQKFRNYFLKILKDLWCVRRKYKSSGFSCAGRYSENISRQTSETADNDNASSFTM

[6] = molecular target: T3, Protein Tat (Human immunodeficiency virus type 1 group M subtype B (isolate HXB2)(HIV-1), UniProt P04608); type: functional;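 also: tat binding to TAR RNA read out by fluorescence polarization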
T3 sequence (P04608 whole entry): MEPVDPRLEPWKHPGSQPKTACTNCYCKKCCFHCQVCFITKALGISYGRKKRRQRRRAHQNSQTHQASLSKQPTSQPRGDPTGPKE

[7] = molecular target: E3 ubiquitin-protein ligase Mdm2 (Homo sapiens, UniProt Q00987); test: MDM2-luc reporter signal enhancers, multi-concentration potency testing, MDM2 ubiquitin-protein ligase inhibitor program, whole-cell format, luminescence detection, 384-well microplate (AID 1394); type: functional;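 also: MDM2 E3 inhibitors raise luminescence so EC50 is for signal enhancement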
Sequence of E3 ubiquitin-protein ligase Mdm2 (Q00987 whole entry): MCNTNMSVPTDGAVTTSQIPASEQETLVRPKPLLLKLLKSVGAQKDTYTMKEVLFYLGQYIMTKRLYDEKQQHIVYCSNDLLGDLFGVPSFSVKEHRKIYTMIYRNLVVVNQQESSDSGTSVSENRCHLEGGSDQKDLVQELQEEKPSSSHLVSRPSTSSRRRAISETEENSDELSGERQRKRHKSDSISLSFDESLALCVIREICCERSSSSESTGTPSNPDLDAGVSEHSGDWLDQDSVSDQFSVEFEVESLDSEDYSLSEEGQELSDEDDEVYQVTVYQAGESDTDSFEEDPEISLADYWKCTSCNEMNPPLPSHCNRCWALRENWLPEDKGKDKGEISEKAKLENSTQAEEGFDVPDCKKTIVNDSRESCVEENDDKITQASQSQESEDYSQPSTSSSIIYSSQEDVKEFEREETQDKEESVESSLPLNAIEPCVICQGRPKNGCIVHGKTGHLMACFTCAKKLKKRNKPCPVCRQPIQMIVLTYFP

[8] = molecular target: Beta-galactosidase (Escherichia coli, UniProt Q8VNN2); test: detection-enzyme interference by beta-gal modulators – biochemical, E. coli enzyme, set 3, artefact control for CCR6 antagonist project, dose response (AID 504712); type: functional
Sequence of Beta-galactosidase (Q8VNN2 whole entry): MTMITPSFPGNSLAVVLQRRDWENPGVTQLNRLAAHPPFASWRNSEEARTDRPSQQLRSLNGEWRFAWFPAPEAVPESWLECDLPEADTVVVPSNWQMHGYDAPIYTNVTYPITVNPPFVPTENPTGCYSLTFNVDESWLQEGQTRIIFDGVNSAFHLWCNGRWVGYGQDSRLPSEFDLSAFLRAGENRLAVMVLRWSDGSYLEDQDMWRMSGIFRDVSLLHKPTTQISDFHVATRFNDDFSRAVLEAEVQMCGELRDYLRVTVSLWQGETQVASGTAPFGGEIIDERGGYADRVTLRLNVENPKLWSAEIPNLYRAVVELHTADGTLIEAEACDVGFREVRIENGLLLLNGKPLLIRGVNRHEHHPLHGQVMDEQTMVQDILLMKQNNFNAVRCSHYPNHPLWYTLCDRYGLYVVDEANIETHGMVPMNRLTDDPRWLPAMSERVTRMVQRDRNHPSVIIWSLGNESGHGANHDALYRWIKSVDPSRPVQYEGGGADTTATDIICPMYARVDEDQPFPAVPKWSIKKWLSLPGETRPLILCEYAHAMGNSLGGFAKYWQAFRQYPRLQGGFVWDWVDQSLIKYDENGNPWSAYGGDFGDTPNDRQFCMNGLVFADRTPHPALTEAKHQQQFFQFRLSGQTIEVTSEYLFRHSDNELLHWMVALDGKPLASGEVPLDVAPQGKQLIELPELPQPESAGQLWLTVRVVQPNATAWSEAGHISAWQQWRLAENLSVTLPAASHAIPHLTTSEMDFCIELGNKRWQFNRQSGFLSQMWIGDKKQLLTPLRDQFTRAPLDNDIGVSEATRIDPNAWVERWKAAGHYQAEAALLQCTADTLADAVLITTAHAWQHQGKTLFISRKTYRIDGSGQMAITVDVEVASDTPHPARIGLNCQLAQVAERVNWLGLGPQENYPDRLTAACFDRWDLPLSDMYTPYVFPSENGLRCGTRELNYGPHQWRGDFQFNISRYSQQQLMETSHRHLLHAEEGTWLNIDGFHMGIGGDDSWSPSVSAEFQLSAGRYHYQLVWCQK

[9] = molecular target: Luciferin 4-monooxygenase (Photinus pyralis, UniProt P08659); test: Counter Screen for Luciferase-based Assay Positives. [Related pubchem assays: 620, 618, 411 ]
Sequence of Luciferin 4-monooxygenase (P08659 whole entry): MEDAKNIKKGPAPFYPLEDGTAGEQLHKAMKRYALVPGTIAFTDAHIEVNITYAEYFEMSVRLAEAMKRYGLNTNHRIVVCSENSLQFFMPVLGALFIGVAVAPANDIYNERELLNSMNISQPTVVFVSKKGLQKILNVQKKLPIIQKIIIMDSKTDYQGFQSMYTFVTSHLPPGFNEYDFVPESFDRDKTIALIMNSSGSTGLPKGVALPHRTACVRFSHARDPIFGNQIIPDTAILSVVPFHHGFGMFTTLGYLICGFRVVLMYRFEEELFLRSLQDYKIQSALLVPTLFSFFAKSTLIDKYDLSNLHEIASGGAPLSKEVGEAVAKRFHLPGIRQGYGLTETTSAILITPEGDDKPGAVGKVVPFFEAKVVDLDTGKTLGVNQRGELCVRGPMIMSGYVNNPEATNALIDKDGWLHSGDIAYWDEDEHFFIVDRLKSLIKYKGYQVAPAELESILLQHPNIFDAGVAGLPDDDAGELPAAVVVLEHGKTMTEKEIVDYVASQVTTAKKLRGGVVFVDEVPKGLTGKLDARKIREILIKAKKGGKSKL

[10] = molecular target: T4, Replicative DNA helicase DnaB (Mycobacterium tuberculosis, UniProt P9WMR3); test: DnaB intein splicing inhibitors, dose response, biochemical, cell-free fluorescence (AID 449749); type: functional
T4 sequence (P9WMR3 whole entry): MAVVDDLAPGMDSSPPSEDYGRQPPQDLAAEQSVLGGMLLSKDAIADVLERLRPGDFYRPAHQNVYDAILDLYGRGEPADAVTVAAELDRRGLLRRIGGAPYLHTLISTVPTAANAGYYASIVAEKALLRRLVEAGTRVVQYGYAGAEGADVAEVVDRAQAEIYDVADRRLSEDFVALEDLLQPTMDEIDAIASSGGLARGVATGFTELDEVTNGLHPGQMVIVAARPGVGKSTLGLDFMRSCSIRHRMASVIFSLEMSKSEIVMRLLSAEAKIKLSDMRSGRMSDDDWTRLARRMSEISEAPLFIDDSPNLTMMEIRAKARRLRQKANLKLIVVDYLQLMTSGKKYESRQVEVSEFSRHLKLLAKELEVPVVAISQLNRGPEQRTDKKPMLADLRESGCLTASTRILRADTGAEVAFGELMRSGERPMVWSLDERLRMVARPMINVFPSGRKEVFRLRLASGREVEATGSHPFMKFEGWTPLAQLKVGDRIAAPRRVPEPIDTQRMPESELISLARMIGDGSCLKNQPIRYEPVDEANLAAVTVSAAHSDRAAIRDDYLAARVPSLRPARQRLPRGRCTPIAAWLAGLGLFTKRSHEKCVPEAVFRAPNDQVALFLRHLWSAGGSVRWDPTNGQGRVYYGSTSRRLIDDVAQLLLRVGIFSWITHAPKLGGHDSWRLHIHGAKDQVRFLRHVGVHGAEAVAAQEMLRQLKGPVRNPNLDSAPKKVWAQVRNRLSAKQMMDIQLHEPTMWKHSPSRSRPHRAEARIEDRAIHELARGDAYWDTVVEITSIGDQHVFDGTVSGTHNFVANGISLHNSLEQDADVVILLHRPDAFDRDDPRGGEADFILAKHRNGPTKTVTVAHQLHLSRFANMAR

[11] = viability of HCT116 lacking mutant beta-catenin – cell-based, human colon tumor, dose response (AID 1045); type: functional;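 also: HCT116 colon tumor cells with beta catenin knocked out; cells exposed to compound for 60 hours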
[12] = viability of PTEN-deleted HCT116 cells – cell-based, HCT116 PTEN knockout, dose response (AID 1047); type: functional;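 also: HCT116 colon tumor cells with PTEN knocked out; cells exposed to compound for 60 hours before readout; potency for loss of cell viability measured by luminescence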
[13] = molecular target: Eukaryotic translation initiation factor 4E (Mus musculus, UniProt P63073); test: blockers of eIF4G binding by eIF4E – biochemical, TR-FRET, dose response (AID 855); type: functional;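 also: potency for disrupting eIF4E binding to eIF4GI seen as loss of FRET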
Sequence of Eukaryotic translation initiation factor 4E (P63073 whole entry): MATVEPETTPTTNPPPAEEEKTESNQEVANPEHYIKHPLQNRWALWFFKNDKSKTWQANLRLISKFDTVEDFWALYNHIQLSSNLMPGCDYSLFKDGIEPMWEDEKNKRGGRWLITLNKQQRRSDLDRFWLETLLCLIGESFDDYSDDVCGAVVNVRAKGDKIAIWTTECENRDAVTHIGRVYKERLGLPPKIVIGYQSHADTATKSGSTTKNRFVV

[14] = molecular target: Nonstructural protein 1 (Influenza A virus, UniProt Q194T2); type: functional, Influenza A virus (A/California/07/2009(H1N1))
Sequence of Nonstructural protein 1 (Q194T2 whole entry): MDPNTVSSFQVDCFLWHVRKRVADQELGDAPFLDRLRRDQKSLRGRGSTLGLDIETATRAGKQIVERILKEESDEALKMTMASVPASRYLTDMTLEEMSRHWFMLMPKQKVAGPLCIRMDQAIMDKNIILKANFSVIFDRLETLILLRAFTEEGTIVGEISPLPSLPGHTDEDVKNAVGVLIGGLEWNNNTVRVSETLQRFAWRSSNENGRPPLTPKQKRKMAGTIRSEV

[15] = molecular target: Beta-arrestin-1 (Homo sapiens, UniProt P49407); test: beta-arrestin/AP2 interaction blockers, potency – biochemical, cherry pick 1, beta2-adaptin appendage, flow cytometry, dose response (AID 588783); type: functional
Sequence of Beta-arrestin-1 (P49407 whole entry): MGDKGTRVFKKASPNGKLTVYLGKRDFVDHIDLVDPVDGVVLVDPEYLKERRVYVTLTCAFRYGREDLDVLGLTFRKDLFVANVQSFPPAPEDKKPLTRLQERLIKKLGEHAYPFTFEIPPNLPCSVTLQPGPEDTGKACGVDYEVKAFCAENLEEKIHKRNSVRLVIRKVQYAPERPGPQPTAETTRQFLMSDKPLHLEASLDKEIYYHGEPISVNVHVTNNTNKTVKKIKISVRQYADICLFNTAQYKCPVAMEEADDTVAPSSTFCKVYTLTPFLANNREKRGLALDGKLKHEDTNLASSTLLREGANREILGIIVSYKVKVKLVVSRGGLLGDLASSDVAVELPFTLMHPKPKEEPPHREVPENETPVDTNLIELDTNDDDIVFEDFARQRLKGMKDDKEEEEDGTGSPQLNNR

[16] = molecular target: DNA topoisomerase (Yersinia pestis, UniProt A0A2S9PM60); test: Yersinia topoisomerase I cleavage product accumulation – biochemical, cherry-pick, dose response (AID 588525)
Sequence of DNA topoisomerase (A0A2S9PM60 whole entry): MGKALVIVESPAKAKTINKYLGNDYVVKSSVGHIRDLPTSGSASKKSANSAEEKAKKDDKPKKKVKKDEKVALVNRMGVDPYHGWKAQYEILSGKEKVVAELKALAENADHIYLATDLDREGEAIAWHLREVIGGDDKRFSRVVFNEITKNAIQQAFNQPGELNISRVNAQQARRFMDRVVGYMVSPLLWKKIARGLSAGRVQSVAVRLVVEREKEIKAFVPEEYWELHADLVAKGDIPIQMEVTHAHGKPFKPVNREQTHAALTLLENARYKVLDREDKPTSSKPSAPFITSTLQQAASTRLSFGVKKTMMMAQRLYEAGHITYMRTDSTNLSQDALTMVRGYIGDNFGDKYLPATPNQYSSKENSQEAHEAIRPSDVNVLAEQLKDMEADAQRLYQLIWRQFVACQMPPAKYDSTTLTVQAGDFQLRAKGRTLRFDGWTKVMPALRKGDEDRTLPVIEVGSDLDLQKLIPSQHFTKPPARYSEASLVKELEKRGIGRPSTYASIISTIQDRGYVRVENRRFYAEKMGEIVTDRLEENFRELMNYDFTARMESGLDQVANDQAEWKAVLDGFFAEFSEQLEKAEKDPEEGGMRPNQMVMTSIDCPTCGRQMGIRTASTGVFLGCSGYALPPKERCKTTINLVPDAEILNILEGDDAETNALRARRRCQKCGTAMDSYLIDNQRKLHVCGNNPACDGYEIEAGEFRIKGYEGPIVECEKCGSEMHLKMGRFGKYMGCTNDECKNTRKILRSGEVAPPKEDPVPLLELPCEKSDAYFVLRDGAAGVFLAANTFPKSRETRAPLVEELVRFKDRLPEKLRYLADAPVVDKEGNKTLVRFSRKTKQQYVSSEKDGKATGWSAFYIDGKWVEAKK

[17] = molecular target: T5, Probable nicotinate-nucleotide adenylyltransferase (Staphylococcus aureus (strain N315), UniProt P65502); type: functional, Staphylococcus aureus subsp. aureus N315; settings: read-out: IC50_Mean;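 as to IC50 Mean: confirmatory dose-response retesting of NadD inhibitor hits first found in an ultra-high-throughput screen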
T5 sequence (P65502 whole entry): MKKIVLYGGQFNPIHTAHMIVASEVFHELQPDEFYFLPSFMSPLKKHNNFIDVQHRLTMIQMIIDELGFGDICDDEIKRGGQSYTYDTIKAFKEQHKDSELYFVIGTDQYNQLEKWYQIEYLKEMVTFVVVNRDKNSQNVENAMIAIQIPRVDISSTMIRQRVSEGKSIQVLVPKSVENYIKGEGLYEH

[18] = molecular target: T5, Probable nicotinate-nucleotide adenylyltransferase; type: functional, Staphylococcus aureus subsp. aureus N315

Cc1ccn2c(C(=O)c3ccc(Cl)cc3)cnc2c1
AC50 [1]: 37 µM (active)

O=C1C(Cl)=C(N2CCCCC2)C(=O)C(Cl)=C1c1cnc(N2CCCCC2)s1
EC50 [2]: 766 nM (active)
EC50 [3]: 45.9 µM (active)
IC50 [4]: 11.4 µM (active)
IC50 [5]: > 66.6 µM (inactive)
IC50 [6]: 1.99 µM (inconclusive)
EC50 [7]: 2.42 µM (active)
IC50 [8]: > 66.6 µM (inactive)
EC50 [9]: 4.4 µM (active)
AC50 [10]: > 380 µM (inactive)
EC50 [11]: 2.75 µM (active)
EC50 [12]: 3.45 µM (active)
IC50 [13]: > 64 µM (inactive)
IC50 [14]: 21.4 µM (active)
IC50 [15]: 14.1 µM (active)

O=C(Nc1ccn(CCCN(CCCn2ccc(NC(=O)OCc3ccccc3)nc2=O)CCc2cc3ccccc3[nH]2)c(=O)n1)OCc1ccccc1
AC50 [16]: 2.54 µM (active)
IC50 [17]: 40.7 µM (active)
IC50 [18]: 15.9 µM (active)
